Literature values in patent EP4631497A1, “LIPOSOMAL COMPOSITION FOR TOPICAL ADMINISTRATION” (priority 2024, dated 2025).
Like-named read-outs stand apart in the source and are kept apart here.

Wasserlöslichkeit (bei 25°C) | Wasserlöslichkeit (water) [mg/mL] | Structure (SMILES)
< 0,1 mg/ml |  | O=C(CCc1ccc(O)cc1)c1c(O)cc(O)cc1O [Phloretin]
< 1 mg/mL |  | O=C1c2c(O)cc(O)cc2O[C@H](c2ccc(O)c(O)c2)[C@H]1O [Taxifolin]
< 0,1 mg/ml |  | Oc1ccc(C=Cc2cc(O)cc(O)c2)cc1 [Resveratrol]
 | < 1 | C[C@@H]1O[C@@H](O[C@H]2[C@H](Oc3cc(O)c4c(c3)O[C@H](c3ccc(O)cc3)CC4=O)O[C@H](CO)[C@@H](O)[C@@H]2O)[C@H](O)[C@H](O)[C@H]1O [Naringin]
